Test in all cases: NCI tumour cell line growth inhibition, 48 h
The test system of experiment [1] is UACC-62 melanoma.
Experiment [2] concerns NCI-H226 lung.
Experiment [3] concerns PC-3 prostate.
In experiment [4] the test system is M14 melanoma.
Experiment [5] relates to HCT-15 colon.
Experiment [6] concerns HS 578T breast.
In experiment [7] the test system is MCF7 breast.
The subject of experiment [8] is CCRF-CEM leukemia.
Experiment [9] deals with RPMI-8226 leukemia.
Experiment [10] concerns HCC-2998 colon.

Molecules are shown by their SMILES.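 Five concentrations, 48 hours, 96-well plates. The concentration for full growth arrest is given as TGI.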 Where a SMILES comes first, the peptide text is derived from it. The star is where a group is joined. Cbz = O=C(OCc1ccccc1)*

Regarding `COP(=O)(OC)[C@@](O)(c1ccccc1)[C@@H](O)[C@H](O)c1ccccc1`, the TGI in [1], in [2], in [3], in experiment [4], in experiment [5] and in experiment [6] was above 100 µM each time. In addition, the TGI was determined as 63.3 µM in experiment [7] and 41.6 µM in experiment [8].
With `CN(C)CCNc1c(O)c2c(c(O)c1Cl)C(=O)C=CC2=O`, the TGI stood at 3.74 µM in experiment [1]; 50.1 µM in [2]; 17.8 µM in experiment [3]; 3.64 µM in experiment [4]; 8.14 µM in experiment [9]; 4.29 µM in experiment [5]. Also, the TGI in [10] came out at 3.59 µM; in experiment [6], 7.56 µM; in experiment [8] it was 4.72 µM.
Take `COc1ccc(/C=C2\C(=O)N(C(=O)c3ccc(NC(C)=O)cc3)N=C2C)cc1OC`: the TGI in experiment [2], in [4], in experiment [9], in [5], in [10] and in experiment [8] was above 100 µM each time.
Regarding `COc1nc2ncc([C@@H](OC(C)=O)[C@@H](COC(C)=O)OC(C)=O)nc2c(=O)n1C`, the TGI in experiment [1], in experiment [2], in [3], in experiment [4], in experiment [9] and in [5] was above 100 µM in each case. In addition, the TGI in experiment [6], in experiment [7] and in [8] was above 100 µM each time.
For `COC(=O)C12CCCN1CCC2`, the TGI in experiment [1], in experiment [2], in experiment [3], in [4], in experiment [5] and in experiment [10] was above 100 µM in each case. Besides, the TGI in experiment [7] and in experiment [8] was above 100 µM throughout.
On to `O=C(CSc1nc2ccccc2c(=O)n1-c1ccccc1)N=Nc1c(O)[nH]c2ccc(Br)cc12`, for which the TGI in experiment [1] is 25.9 µM; in experiment [3], 4.03 µM; in experiment [4] it was 6.87 µM; in [9], above 38 µM; in experiment [5] it was 30.2 µM; in experiment [10] it was above 100 µM. Besides, the TGI is above 100 µM in [6], above 27.9 µM in experiment [7] and above 100 µM in experiment [8].
With `Cn1c2ccccc2n2c(=O)c(-c3ccc(Cl)cc3)nnc12`, the TGI in experiment [2], in [4], in experiment [5], in experiment [10], in [6] and in experiment [7] was above 100 µM each time. Moreover, the TGI in [8] is above 100 µM.
As for `CCOc1cc2c(cc1OC)c[n+](C)c1c3cc(OC)c(OC)cc3ccc21`, the TGI in experiment [1] is above 100 µM; in experiment [2], 99 µM; in [4] it was above 100 µM; in experiment [9] it was above 100 µM; in experiment [5], above 100 µM; in experiment [10], above 100 µM. The TGI in experiment [8] was above 65.8 µM.
In the case of `COC(=O)C12C(=O)CC3CCC1C32C(=O)OC` (stereo unspecified), the TGI in [1], in experiment [2], in [3], in experiment [4], in [9] and in experiment [5] was above 100 µM throughout. Besides, the TGI in experiment [10], in experiment [7] and in [8] was above 100 µM in each case.
For the compound `O=C(CN1CCCCC1)c1ccc2[nH]c(=O)oc2c1`, the TGI in [1], in [2], in experiment [3], in experiment [4], in experiment [9] and in experiment [5] was above 100 µM each time. The TGI in experiment [6], in [7] and in experiment [8] was above 100 µM in each case.
For the compound `C[N+](C)(N)Cc1nc(-c2ccc(Cl)cc2)no1`, the TGI in experiment [1], in experiment [2], in experiment [3], in experiment [4], in [9] and in experiment [5] was above 100 µM in each case. Further, the TGI in experiment [6], in [7] and in experiment [8] was above 100 µM each time.
With `OC1C2CN3CCN(C2)CC1(c1ccccc1)C3` (stereo unspecified), the TGI in experiment [1], in experiment [2], in experiment [3], in experiment [9], in experiment [6] and in experiment [7] was above 100 µM in each case.
For the compound `CC(C)C(Sc1nc(-c2ccccc2)c(-c2ccccc2)[nH]1)C(=O)N/N=C/c1ccc(Cl)cc1` (stereo unspecified), the TGI in [1] amounted to 40.1 µM; in [2], 41.5 µM; in [4], 33.7 µM; in experiment [9] it was 65.4 µM; in experiment [5], 59.3 µM; in experiment [8], 85.4 µM.
Regarding `Nc1nc(N)c2cc(-c3cc4ccccc4[nH]3)ccc2n1`, the TGI in experiment [1] is 33.9 µM; in experiment [2], 93.7 µM; in experiment [3] it was above 100 µM; in [4], 34.4 µM; in [9], 32.4 µM; in experiment [5], 55 µM. The TGI was above 100 µM in experiment [6], 33.6 µM in experiment [7] and above 100 µM in [8].
In the case of `CCOC(=O)c1ccc(-c2onc(C)c2Br)[nH]1`, the TGI in experiment [1], in experiment [3], in [4], in [9], in [5] and in experiment [10] was above 100 µM each time. For the same compound, the TGI in [6] and in experiment [7] was above 100 µM in each case.
In the case of `C[C@]12CC[C@H]3[C@@H](CC=C4C[C@@H](N5CCCC5)CC[C@@]43C)[C@@H]1C/C(=C\c1ccc([N+](=O)[O-])cc1)[C@@H]2O`, the TGI in experiment [1] turned out to be 29.3 µM; in [2] it was 36.2 µM; in experiment [3], 88 µM; in experiment [4] it was 30.2 µM; in [9] it was 38.5 µM; in experiment [5], 28.4 µM. Moreover, the TGI in experiment [6] was determined as 40.3 µM; in [7], 68.9 µM; in [8], 14.1 µM.
For the compound `Cc1cnoc1/N=C1\C=C(Nc2oncc2C)C(=O)c2ccccc21`, the TGI in experiment [1], in experiment [2], in [4], in [9], in experiment [5] and in [10] was above 100 µM in each case. For the same compound, the TGI in experiment [8] is above 100 µM.
For the compound `Cc1cccc(C)c1NC(=S)N/C=C(\C#N)C(N)=O`, the TGI in [1], in experiment [2], in experiment [3], in experiment [4], in [9] and in [5] was above 100 µM throughout. The TGI in [6], in [7] and in experiment [8] was above 100 µM in each case.
As for `CN1CCN(c2n[nH]c(=O)c3c2nnn3Cc2ccccc2)CC1`, the TGI is 37.1 µM in experiment [3]; above 100 µM in [4]; above 100 µM in experiment [9]; above 100 µM in [5]; above 100 µM in experiment [10]; above 100 µM in experiment [7]. In experiment [8], the TGI was above 100 µM.
Regarding `O=C(O)CSC1=NCCN1`, the TGI in experiment [1], in [3], in [4], in experiment [9], in experiment [5] and in experiment [6] was above 100 µM each time. Further, the TGI in experiment [7] and in experiment [8] was above 100 µM each time.
As to `CN(C(=O)Cc1cc(Cl)c(Cl)cc1NC(=O)CCCN)[C@H]1CCCC[C@@H]1N1CCCC1`, the TGI in [1] was 40.4 µM; in experiment [2], above 100 µM; in experiment [3] it was above 100 µM; in experiment [4], 34 µM; in [9] it was above 100 µM; in experiment [5], above 100 µM. In addition, the TGI in [10] turned out to be 37.1 µM; in [7], 44.2 µM.
In the case of `O=C1C(NS(=O)(=O)c2ccccc2)=C(n2ccnc2)C(=O)c2ccccc21`, the TGI in experiment [1], in experiment [2], in [3], in experiment [4], in [9] and in experiment [5] was above 100 µM each time. The TGI in experiment [6], in [7] and in experiment [8] was above 100 µM in each case.
In the case of `CS(=O)(=O)N(CCC#N)c1ccc(/C=C2\N=C(c3ccccc3Cl)OC2=O)cc1`, the TGI in experiment [1], in [2], in [4], in experiment [9], in [5] and in [10] was above 100 µM in each case. Further, the TGI in [8] was above 100 µM.
In the case of `COc1cc2c(c3nc4ccccc4nc13)-c1ccc(SC)c(=O)cc1[C@@H](NC(C)=O)CC2`, the TGI in experiment [1] was above 100 µM; in experiment [3] it was above 100 µM; in [4], above 100 µM; in [9], above 100 µM; in experiment [5] it was above 21.7 µM; in [6] it was 0.0543 µM. In addition, the TGI in experiment [7] and in [8] was above 100 µM throughout.
Take `COC(=O)C1=C(C(=O)OC)C23CC4CCC2(C(=O)C1O3)C4(C)C` (stereo unspecified): the TGI in experiment [1], in [2], in experiment [4], in [9], in experiment [5] and in [10] was above 100 µM each time. The same compound came in with a TGI in experiment [8] of 66.7 µM.
As to `CCOC(=O)c1nc2ccccc2nc1Nc1cc(OC)c(OC)c(OC)c1`, the TGI in experiment [1], in [4], in experiment [9], in experiment [5], in experiment [10] and in experiment [6] was above 100 µM throughout. For the same compound, the TGI in experiment [7] and in experiment [8] was above 100 µM throughout.
In the case of `CCOC(=O)CCC(NC(=O)C(CC(=O)OC)NC(=O)OCc1ccccc1)C(=O)NC(CC(=O)OC)C(=O)NC(CCC(=O)OCC)C(=O)NC(CC(=O)OC)C(=O)NC(CCC(=O)OCC)C(=O)NC(CC(=O)OCC)C(=O)OCC` (stereo unspecified) (Cbz-D(OMe)E(OEt)D(OMe)E(OEt)D(OMe)E(OEt)D(OEt)-OEt; configuration not given here), the TGI in experiment [1], in experiment [2], in [3], in experiment [9], in [5] and in [10] was above 100 µM in each case. Further, the TGI in [7] and in [8] was above 100 µM throughout.
Consider `CCN(CC)c1c(-c2c(OC(C)C)c(=O)c2=O)c(=O)n2ccsc2c1OC(C)=O`, for which the TGI in experiment [1], in [2], in [3], in [4], in experiment [9] and in [5] was above 100 µM in each case. For the same compound, the TGI in experiment [10], in experiment [6] and in experiment [8] was above 100 µM each time.
As to `CC(Nc1cccc(Cl)c1)c1ccncc1` (stereo unspecified), the TGI in experiment [2], in experiment [3], in experiment [4], in [9], in [5] and in experiment [6] was above 100 µM throughout. In addition, the TGI in experiment [7] and in [8] was above 100 µM in each case.
As to `O=NN(CC1(O)OCC(O)C(O)C1O)C(Cc1c[nH]c2ccccc12)C(=O)O` (stereo unspecified), the TGI in experiment [1], in experiment [4], in experiment [9], in experiment [10] and in experiment [8] was above 100 µM each time.
Regarding `O=C1c2cccnc2S(=O)(=O)N1c1ccc(Br)cc1`, the TGI in experiment [1], in [2], in experiment [3], in experiment [4], in experiment [9] and in experiment [5] was above 100 µM in each case. In addition, the TGI in experiment [6] and in experiment [8] was above 100 µM in each case.
In the case of `CSC(=Nc1ccc([N+](=O)[O-])cc1C#N)NC(=O)c1ccccc1`, the TGI in experiment [1], in [2], in experiment [4], in [9], in [5] and in [10] was above 100 µM each time. In [8], this compound had a TGI above 100 µM.

The values are drawn from PubChem BioAssay (NCI).
